Experimental data published in patent publication US6770596B1, “Fused tricyclic compounds, process for their preparation, and herbicidal compositions containing them” (Ishihara Sangyo Kaisha Ltd., priority 2002, dated 2004).

Legend:
Type in all cases: in vivo
[1] = system: redroot pigweed (Amaranthus retroflexus, AMR); test: Pre-emerge test, redroot pigweed; conditions: 250 g ai/ha, 14 days after application, rating scale 0-100 (0 no damage, 100 complete death)
Summary of the method: (§1)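 Pre-emerge greenhouse screen: sow, wait 1 d, spray acetone solution (8–1000 g ai/ha, 187 l/ha), rate injury 0–100 at 14 DAT.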

[2] = system: velvetleaf (Abutilon theophrasti, ABT); test: Pre-emerge test, velvetleaf; conditions: 250 g ai/ha, 14 days after application, rating scale 0-100 (0 no damage, 100 complete death)
Summary of the method: as §1

[3] = system: sicklepod (Cassia obtusifolia, CAO); test: Pre-emerge test, sicklepod; conditions: 250 g ai/ha, 14 days after application, rating scale 0-100 (0 no damage, 100 complete death)
Summary of the method: as §1

[4] = system: ivyleaf morningglory (Ipomoea hederacea, IPH); test: Pre-emerge test, ivyleaf morningglory; conditions: 250 g ai/ha, 14 days after application, rating scale 0-100 (0 no damage, 100 complete death)
Summary of the method: as §1

[5] = system: lambsquarters (Chenopodium album, CHA); test: Pre-emerge test, lambsquarters; conditions: 250 g ai/ha, 14 days after application, rating scale 0-100 (0 no damage, 100 complete death)
Summary of the method: as §1

[6] = system: common ragweed (Ambrosia artemisiifolia L., AML); test: Pre-emerge test, common ragweed; conditions: 250 g ai/ha, 14 days after application, rating scale 0-100 (0 no damage, 100 complete death)
Summary of the method: as §1

[7] = system: cocklebur (Xanthium strumariunt, XAS); test: Pre-emerge test, cocklebur; conditions: 250 g ai/ha, 14 days after application, rating scale 0-100 (0 no damage, 100 complete death)
Summary of the method: as §1

[8] = system: green foxtail (Setaria viridis, SEV); test: Pre-emerge test, green foxtail; conditions: 250 g ai/ha, 14 days after application, rating scale 0-100 (0 no damage, 100 complete death)
Summary of the method: as §1

[9] = system: barnyardgrass (Echinachloa crus-galli, ECC); test: Pre-emerge test, barnyardgrass; conditions: 250 g ai/ha, 14 days after application, rating scale 0-100 (0 no damage, 100 complete death)
Summary of the method: as §1

[10] = system: johnsongrass (Sorghum halepense, SOH); test: Pre-emerge test, johnsongrass; conditions: 250 g ai/ha, 14 days after application, rating scale 0-100 (0 no damage, 100 complete death)
Summary of the method: as §1

[11] = system: large crabgrass (Digitaria sanguinalis, DIS); test: Pre-emerge test, large crabgrass; conditions: 250 g ai/ha, 14 days after application, rating scale 0-100 (0 no damage, 100 complete death)
Summary of the method: as §1

[12] = system: field corn (Zea mays L., var. Dekalb 535, CORN); test: Pre-emerge test, crop damage field corn
Summary of the method: (§2)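 Scores at 14 days after treatment use a 0–100 scale, where 0 is no damage and 100 is death of all plants. Treatments were acetone solutions sprayed at 8–1000 g ai/ha onto soil sown one day prior.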

[13] = system: soybean (Glycine max L., var. Pella 86, SOY); test: Pre-emerge test, crop damage soybean
Summary of the method: as §2

[14] = system: upland rice (Oryza sp., var.Tebonnet, RICE); test: Pre-emerge test, crop damage upland rice
Summary of the method: as §2

[15] = system: wheat (Triticum aestivum); test: Pre-emerge test, crop damage wheat
Summary of the method: as §2

[16] = system: redroot pigweed (Amaranthus retroflexus, AMR); test: Post-emerge test, redroot pigweed; conditions: 250 g ai/ha, 14 days after application, rating scale 0-100 (0 no damage, 100 complete death)
Summary of the method: (§3)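 A greenhouse foliar screen: the compound was applied over the top of 2-3 leaf plants by a flat-fan track sprayer at 8 to 1000 g ai/ha. It was delivered in acetone at 187 l/ha, with 0.25% v/v non-ionic surfactant added for leaf wetting. Injury was judged 14 days on, from 0 (none) to 100 (complete kill).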

[17] = system: velvetleaf (Abutilon theophrasti, ABT); test: Post-emerge test, velvetleaf; conditions: 250 g ai/ha, 14 days after application, rating scale 0-100 (0 no damage, 100 complete death)
Summary of the method: as §3

[18] = system: sicklepod (Cassia obtusifolia, CAO); test: Post-emerge test, sicklepod; conditions: 250 g ai/ha, 14 days after application, rating scale 0-100 (0 no damage, 100 complete death)
Summary of the method: as §3

[19] = system: ivyleaf morningglory (Ipomoea hederacea, IPH); test: Post-emerge test, ivyleaf morningglory; conditions: 250 g ai/ha, 14 days after application, rating scale 0-100 (0 no damage, 100 complete death)
Summary of the method: as §3

[20] = system: lambsquarters (Chenopodium album, CHA); test: Post-emerge test, lambsquarters; conditions: 250 g ai/ha, 14 days after application, rating scale 0-100 (0 no damage, 100 complete death)
Summary of the method: as §3

[21] = system: common ragweed (Ambrosia artemisiifolia L., AML); test: Post-emerge test, common ragweed; conditions: 250 g ai/ha, 14 days after application, rating scale 0-100 (0 no damage, 100 complete death)
Summary of the method: as §3

[22] = system: cocklebur (Xanthium strumariunt, XAS); test: Post-emerge test, cocklebur; conditions: 250 g ai/ha, 14 days after application, rating scale 0-100 (0 no damage, 100 complete death)
Summary of the method: as §3

[23] = system: green foxtail (Setaria viridis, SEV); test: Post-emerge test, green foxtail; conditions: 250 g ai/ha, 14 days after application, rating scale 0-100 (0 no damage, 100 complete death)
Summary of the method: as §3

[24] = system: barnyardgrass (Echinachloa crus-galli, ECC); test: Post-emerge test, barnyardgrass; conditions: 250 g ai/ha, 14 days after application, rating scale 0-100 (0 no damage, 100 complete death)
Summary of the method: as §3

[25] = system: johnsongrass (Sorghum halepense, SOH); test: Post-emerge test, johnsongrass; conditions: 250 g ai/ha, 14 days after application, rating scale 0-100 (0 no damage, 100 complete death)
Summary of the method: as §3

[26] = system: large crabgrass (Digitaria sanguinalis, DIS); test: Post-emerge test, large crabgrass; conditions: 250 g ai/ha, 14 days after application, rating scale 0-100 (0 no damage, 100 complete death)
Summary of the method: as §3

[27] = system: field corn (Zea mays L., var. Dekalb 535, CORN); test: Post-emerge test, crop damage field corn
Summary of the method: as §3

[28] = system: soybean (Glycine max L., var. Pella 86, SOY); test: Post-emerge test, crop damage soybean
Summary of the method: as §3

[29] = system: upland rice (Oryza sp., var.Tebonnet, RICE); test: Post-emerge test, crop damage upland rice
Summary of the method: as §3

[30] = system: wheat (Triticum aestivum); test: Post-emerge test, crop damage wheat
Summary of the method: as §3

[31] = var. Dekalb 535, Zea mays (field corn), in vivo, 14 days
[32] = var. Pella 86, Glycine max (soybean), in vivo, 14 days
[33] = var. Tebonnet, Oryza sp. (upland rice), in vivo, 14 days
[34] = Triticum aestivum (wheat), in vivo, 14 days
[35] = pre-emerge, 250 g ai/ha, 14 days after application, rating scale 0-100 (0 no damage, 100 complete death)
[36] = post-emerge, 250 g ai/ha, 14 days after application, rating scale 0-100 (0 no damage, 100 complete death)

SMILES | Pre-emerge Herbicidal Activity AMR (phytotoxicity rating) [1] | Pre-emerge Herbicidal Activity ABT (phytotoxicity rating) [2] | Pre-emerge Herbicidal Activity CAO (phytotoxicity rating) [3] | Pre-emerge Herbicidal Activity IPH (phytotoxicity rating) [4] | Pre-emerge Herbicidal Activity CHA (phytotoxicity rating) [5] | Pre-emerge Herbicidal Activity AML (phytotoxicity rating) [6] | Pre-emerge Herbicidal Activity XAS (phytotoxicity rating) [7] | Pre-emerge Herbicidal Activity SEV (phytotoxicity rating) [8] | Pre-emerge Herbicidal Activity ECC (phytotoxicity rating) [9] | Pre-emerge Herbicidal Activity SOH (phytotoxicity rating) [10] | Pre-emerge Herbicidal Activity DIS (phytotoxicity rating) [11] | Post-emerge Herbicidal Activity AMR (phytotoxicity rating) [16] | Post-emerge Herbicidal Activity ABT (phytotoxicity rating) [17] | Post-emerge Herbicidal Activity CAO (phytotoxicity rating) [18] | Post-emerge Herbicidal Activity IPH (phytotoxicity rating) [19] | Post-emerge Herbicidal Activity CHA (phytotoxicity rating) [20] | Post-emerge Herbicidal Activity AML (phytotoxicity rating) [21] | Post-emerge Herbicidal Activity XAS (phytotoxicity rating) [22] | Post-emerge Herbicidal Activity SEV (phytotoxicity rating) [23] | Post-emerge Herbicidal Activity ECC (phytotoxicity rating) [24] | further results
Cn1nc(-c2c(F)cc3c4c2NC(=O)CN4C(=O)C(C)(C)O3)c(Cl)c1C(F)(F)F [1-52, 8-[4-Chloro-1-methyl-5-(trifluoromethyl)-1H-pyrazol-3-yl]-2,2-dimethyl-9-fluoro-5H-pyrazino[1,2,3-de]-1,4-benzoxazine-3,6(2H, 7H)-dione] | 100 | 100 | 97 | 95 | 100 | 98 | 85 | 90 | 85 | 100 | 80 | 100 | 100 | 50 | 70 | 100 | 60 | 75 | 0 | 50 | Pre-emerge crop damage CORN (phytotoxicity rating) [12, 31]: 50; Pre-emerge crop damage SOY (phytotoxicity rating) [13, 32]: 50; Pre-emerge crop damage RICE (phytotoxicity rating) [14, 33]: 0; Pre-emerge crop damage WHEAT (phytotoxicity rating) [15, 34]: 0; Post-emerge Herbicidal Activity SOH (phytotoxicity rating) [25]: 0; Post-emerge Herbicidal Activity DIS (phytotoxicity rating) [26]: 0; Post-emerge crop damage CORN (phytotoxicity rating) [27, 31]: 0; Post-emerge crop damage SOY (phytotoxicity rating) [28, 32]: 0; Post-emerge crop damage RICE (phytotoxicity rating) [29, 33]: 0; Post-emerge crop damage WHEAT (phytotoxicity rating) [30, 34]: 0
CC1C(=O)Nc2c(-c3ncc(C(F)(F)F)cc3Cl)c(F)cc3c2N1C(=O)CO3 (stereo not drawn) [1-64] | 100 | 100 | 100 | 100 | 100 | 100 | 100 | 100 | 100 | 100 | 100 | 100 | 100 | 85 | 100 | 100 | 95 | 100 | 100 | 100 | Pre-emerge crop damage CORN (phytotoxicity rating) [12, 35]: 100; Pre-emerge crop damage SOY (phytotoxicity rating) [13, 35]: 99; Pre-emerge crop damage RICE (phytotoxicity rating) [14, 35]: 95; Pre-emerge crop damage WHEAT (phytotoxicity rating) [15, 35]: 90; Post-emerge Herbicidal Activity SOH (phytotoxicity rating) [25]: 85; Post-emerge Herbicidal Activity DIS (phytotoxicity rating) [26]: 40; Post-emerge crop damage CORN (phytotoxicity rating) [27, 36]: 5; Post-emerge crop damage SOY (phytotoxicity rating) [28, 36]: 100; Post-emerge crop damage RICE (phytotoxicity rating) [29, 36]: 0; Post-emerge crop damage WHEAT (phytotoxicity rating) [30, 36]: 15
C[C@@H]1Oc2cc(F)c(-c3nn(C)c(C(F)(F)F)c3Cl)c3c2N(CC(=O)N3)C1=O [1-49, 8-[4-Chloro-1-methyl-5-(trifluoromethyl)-1H-pyrazol-3-yl]-9-fluoro-2-S-methyl-5H-pyrazino[1,2,3-de]-1,4-benzoxazine-3,6(2H, 7H)-dione] | 100 | 100 | 100 | 100 | 100 | 100 | 85 | 100 | 100 | 100 | 100 | 100 | 100 | 100 | 100 | 100 | 80 | 100 | 100 | 100 | Pre-emerge crop damage CORN (phytotoxicity rating) [12, 35]: 70; Pre-emerge crop damage SOY (phytotoxicity rating) [13, 35]: 50; Pre-emerge crop damage RICE (phytotoxicity rating) [14, 35]: 70; Pre-emerge crop damage WHEAT (phytotoxicity rating) [15, 35]: 60; Post-emerge Herbicidal Activity SOH (phytotoxicity rating) [25]: 65; Post-emerge Herbicidal Activity DIS (phytotoxicity rating) [26]: 99; Post-emerge crop damage CORN (phytotoxicity rating) [27, 36]: 35; Post-emerge crop damage SOY (phytotoxicity rating) [28, 36]: 80; Post-emerge crop damage RICE (phytotoxicity rating) [29, 36]: 85; Post-emerge crop damage WHEAT (phytotoxicity rating) [30, 36]: 50
CCC1C(=O)Nc2c3c(cc(F)c2-n2nc(C)n(C(F)F)c2=O)OCC(=O)N31 (stereo not drawn) [1-75] | 50 | 100 | 65 | 99 | 100 | 85 | 85 | 99 | 100 | 100 | 100 | 0 | 90 | 0 | 80 | 80 | 45 | 20 | 0 | 0 | Pre-emerge crop damage CORN (phytotoxicity rating) [12, 35]: 100; Pre-emerge crop damage SOY (phytotoxicity rating) [13, 35]: 98; Pre-emerge crop damage RICE (phytotoxicity rating) [14, 35]: 99; Pre-emerge crop damage WHEAT (phytotoxicity rating) [15, 35]: 10; Post-emerge Herbicidal Activity SOH (phytotoxicity rating) [25]: 0; Post-emerge Herbicidal Activity DIS (phytotoxicity rating) [26]: 0; Post-emerge crop damage CORN (phytotoxicity rating) [27, 36]: 0; Post-emerge crop damage SOY (phytotoxicity rating) [28, 36]: 55; Post-emerge crop damage RICE (phytotoxicity rating) [29, 36]: 40; Post-emerge crop damage WHEAT (phytotoxicity rating) [30, 36]: 0
